Measured values taken from patent US9050341B2, “Methods of treating drug resistant and other tumors by administering 6,7-dialkoxy quinazoline derivatives” (NATCO PHARMA LIMITED, priority 2009, dated 2015).

Key:
Assay in all cases: KinomeScan kinase profiling
Format in all cases: binding
EPHB3 = molecular target: T1, EPHB3 (Homo sapiens, UniProt P54753)
T1 construct: host or cells: E. coli host derived from BL21, T7 phage lysate
From the text: (§1) The kinases were ABL1(F317L), ABL1(H396P), ABL1(Q252H), ABL1(Y253F), ADCK3, ADCK4, ALK, ARK5, AXL, BLK, BRSK2, CDK7, CIT, CLK4, CSNK1D, CSNK1E, DAPK1, DAPK3, DCAMKL3, DMPK, EGFR, EGFR(E746-A750DEL), EGFR(G719C), EGFR(G719S), EGFR(L747-E749DEL, A750P), EGFR(L747-S752 DEL, P753S), EGFR(L747-T751DEL, Sin), EGFR(L858R), EGFR(L861Q), EGFR(S752-I759DEL), EPHA5, EPHA6, ERBB2, ERBB4, ERK3, ERK4, FGR, FLT3(D835H), FLT3(D835Y), FLT3(ITD), FLT3(N841 I), FRK, GAK, GCN2(KIN.DOM.2, S808G), HCK, IRAK3, JAK1(KIN.DOM.1), KIT, KIT(D816V), KIT(V559D), KIT(V559D,T670I), LCK, LOK, LTK, LYN, MAP3K3, MAP4K4, MAP4K5, MET, MINK, MKNK1, MKNK2, MST4, MYLK2, PDGFRB, PIM3, PKN2, PRKD1, PRKD2, PRKD3, PRKG1, RIPK2, RPS6KA4(KIN.DOM.2), SIK2, SLK, SNARK, SRC, STK36, TNIK, TNNI3K, TYK2(KIN.DOM.2).
(§2) Kinase assays: Assays were performed as described in Fabian et al. (2005) Nature Biotechnology, vol. 23, p. 329. Kinase-tagged T7 phage strains were grown in parallel in 24 or 96-well blocks in an E. coli host derived from the BL21 strain. E. coli were grown to log-phase and infected with T7 phage from a frozen stock (multiplicity of infection ˜0.1) and incubated with shaking at 32° C. until lysis (˜90 minutes). The lysates were centrifuged and filtered to remove cell debris. […] The liganded beads were blocked with excess biotin and washed with blocking buffer (SeaBlock (Pierce), 1% BSA, 0.05% Tween 20, 1 mM DTT) to remove unbound ligand and to reduce non-specific phage binding.
(§3) Test compounds were prepared as 40× stocks in DMSO and diluted into the aqueous environment. 2.5% DMSO was added to control assays lacking a test compound. All reactions were performed in polystyrene 96-well plates that had been pretreated with blocking buffer in a final volume of 0.04 ml. […] The phage titer in the eluates was measured by quantitative PCR.

CDK3 = molecular target: T2, CDK3 (Homo sapiens, UniProt Q00526)
T2 construct: host or cells: T7 phage in E. coli (BL21-derived)
T2 sequence (Q00526 whole entry): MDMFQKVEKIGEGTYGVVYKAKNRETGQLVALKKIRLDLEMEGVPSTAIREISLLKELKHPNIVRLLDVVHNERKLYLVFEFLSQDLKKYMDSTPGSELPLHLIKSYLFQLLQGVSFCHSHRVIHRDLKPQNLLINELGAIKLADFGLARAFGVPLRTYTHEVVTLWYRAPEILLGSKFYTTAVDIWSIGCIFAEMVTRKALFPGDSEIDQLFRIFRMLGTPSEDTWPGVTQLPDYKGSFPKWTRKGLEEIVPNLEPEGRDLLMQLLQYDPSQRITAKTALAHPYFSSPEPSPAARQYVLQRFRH
From the text: as §1, §2, §3

VEGFR2 = molecular target: T3, VEGFR2 (Homo sapiens, UniProt P35968)
T3 construct: purchased Ambit Biosciences Corp (KinomeScan); host or cells: E. coli host derived from the BL21 strain (T7 phage lysate)
From the text: as §1, §2, §3

FLT3 = molecular target: T4, FLT3 (Homo sapiens, UniProt P36888)
T4 construct: host or cells: E. coli host derived from BL21, infected with T7 phage
From the text: as §1, §2, §3

FLT3 (D835Y) = molecular target: T5, FLT3 (D835Y) (Homo sapiens, UniProt P36888, D835Y)
T5 construct: host or cells: E. coli host derived from BL21, infected with T7 phage
From the text: as §1, §2, §3

EGFR (G719C) = molecular target: T6, EGFR (G719C) (Homo sapiens, UniProt P00533, G719C)
T6 construct: purchased Ambit Biosciences Corp (KinomeScan); host or cells: T7 phage in E. coli host derived from BL21
From the text: as §1, §2, §3

LIMK1 = molecular target: T7, LIMK1 (Homo sapiens, UniProt P53667)
T7 construct: host or cells: T7 phage in E. coli host derived from BL21
T7 sequence (P53667 whole entry): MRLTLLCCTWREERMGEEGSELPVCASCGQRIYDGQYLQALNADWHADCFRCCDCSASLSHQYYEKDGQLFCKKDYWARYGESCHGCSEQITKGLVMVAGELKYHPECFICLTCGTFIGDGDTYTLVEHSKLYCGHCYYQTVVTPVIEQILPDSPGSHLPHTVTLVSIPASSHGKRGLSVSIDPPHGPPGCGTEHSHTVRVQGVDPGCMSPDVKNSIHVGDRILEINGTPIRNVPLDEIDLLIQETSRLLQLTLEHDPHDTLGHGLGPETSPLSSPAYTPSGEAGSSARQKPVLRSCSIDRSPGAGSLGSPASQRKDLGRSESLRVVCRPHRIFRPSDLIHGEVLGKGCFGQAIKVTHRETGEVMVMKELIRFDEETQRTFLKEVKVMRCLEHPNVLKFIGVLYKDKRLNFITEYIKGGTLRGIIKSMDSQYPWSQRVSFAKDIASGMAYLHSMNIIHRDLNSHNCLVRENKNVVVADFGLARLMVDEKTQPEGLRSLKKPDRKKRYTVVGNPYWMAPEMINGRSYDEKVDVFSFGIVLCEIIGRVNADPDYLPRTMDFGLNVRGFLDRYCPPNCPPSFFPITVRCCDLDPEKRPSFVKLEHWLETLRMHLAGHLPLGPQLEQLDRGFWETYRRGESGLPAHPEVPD
From the text: as §1, §2, §3

CIT = molecular target: T8, CIT (Homo sapiens, UniProt O14578)
T8 construct: host or cells: T7 phage in E. coli (BL21-derived)
From the text: as §1, §2, §3

BRSK1 = molecular target: T9, BRSK1 (Homo sapiens, UniProt Q8TDC3)
T9 construct: purchased Ambit Biosciences Corp (KinomeScan); host or cells: E. coli host derived from the BL21 strain, T7 phage
From the text: as §1, §2, §3

EPHA5 = molecular target: T10, EPHA5 (Homo sapiens, UniProt P54756)
T10 construct: host or cells: E. coli host derived from BL21, T7 phage lysate
From the text: as §1, §2, §3

PFTAIRE2 = molecular target: T11, PFTAIRE2 (Homo sapiens, UniProt Q96Q40)
T11 construct: host or cells: E. coli host derived from the BL21 strain, infected with T7 phage
T11 sequence (Q96Q40 whole entry): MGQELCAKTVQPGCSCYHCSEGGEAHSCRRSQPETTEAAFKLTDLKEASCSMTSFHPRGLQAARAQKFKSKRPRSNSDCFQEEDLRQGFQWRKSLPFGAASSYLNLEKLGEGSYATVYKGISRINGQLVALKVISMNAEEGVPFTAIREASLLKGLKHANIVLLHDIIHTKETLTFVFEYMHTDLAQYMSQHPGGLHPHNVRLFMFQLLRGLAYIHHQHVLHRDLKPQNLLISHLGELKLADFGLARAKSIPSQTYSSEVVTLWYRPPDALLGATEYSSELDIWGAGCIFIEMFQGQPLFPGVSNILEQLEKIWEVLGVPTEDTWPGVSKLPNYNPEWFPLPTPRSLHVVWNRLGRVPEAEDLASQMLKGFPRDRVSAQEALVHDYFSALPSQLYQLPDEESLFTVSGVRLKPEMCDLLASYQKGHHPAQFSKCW
From the text: as §1, §2, §3

GCN2 (Kin.Dom.2.S808G) = molecular target: T12, GCN2 (Kin.Dom.2.S808G) (Homo sapiens, UniProt Q9P2K8, S808G)
T12 construct: GCN2(KIN.DOM.2, S808G); host or cells: E. coli host derived from BL21, infected with T7 phage
From the text: as §1, §2, §3

RET (M918T) = molecular target: T13, RET (M918T) (Homo sapiens, UniProt P07949, M918T)
T13 construct: host or cells: E. coli host derived from BL21, T7 phage lysate
From the text: as §1, §2, §3

LTK = molecular target: T14, LTK (Homo sapiens, UniProt P29376)
T14 construct: host or cells: E. coli derived from BL21, infected with T7 phage
T14 sequence (P29376 17-864): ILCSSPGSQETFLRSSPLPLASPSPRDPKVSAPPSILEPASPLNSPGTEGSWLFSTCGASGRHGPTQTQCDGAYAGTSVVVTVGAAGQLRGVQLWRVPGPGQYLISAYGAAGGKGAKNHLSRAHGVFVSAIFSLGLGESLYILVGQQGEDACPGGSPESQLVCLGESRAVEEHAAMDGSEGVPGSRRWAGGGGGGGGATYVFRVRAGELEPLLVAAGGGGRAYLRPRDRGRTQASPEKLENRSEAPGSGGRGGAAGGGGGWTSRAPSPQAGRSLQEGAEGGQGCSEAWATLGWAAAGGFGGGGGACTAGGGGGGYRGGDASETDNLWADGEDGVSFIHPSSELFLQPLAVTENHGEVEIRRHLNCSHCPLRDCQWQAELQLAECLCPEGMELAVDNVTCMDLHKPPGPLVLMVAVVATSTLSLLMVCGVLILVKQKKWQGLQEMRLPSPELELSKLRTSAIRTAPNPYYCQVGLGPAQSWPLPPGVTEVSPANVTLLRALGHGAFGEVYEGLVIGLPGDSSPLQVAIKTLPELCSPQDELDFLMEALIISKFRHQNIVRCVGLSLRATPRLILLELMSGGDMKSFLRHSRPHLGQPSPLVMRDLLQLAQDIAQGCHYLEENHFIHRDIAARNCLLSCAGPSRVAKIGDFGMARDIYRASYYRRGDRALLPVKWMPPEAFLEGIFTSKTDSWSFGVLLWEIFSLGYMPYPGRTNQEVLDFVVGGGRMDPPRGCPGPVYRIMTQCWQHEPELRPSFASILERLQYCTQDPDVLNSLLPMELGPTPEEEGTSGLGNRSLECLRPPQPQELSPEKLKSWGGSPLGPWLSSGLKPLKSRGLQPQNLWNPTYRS
From the text: as §1, §2, §3

TSSK1B = molecular target: T15, TSSK1B (Homo sapiens, UniProt Q9BXA7)
T15 construct: purchased Ambit Biosciences Corp (KinomeScan); host or cells: E. coli host derived from the BL21 strain (T7 phage lysate)
From the text: as §1, §2, §3

STK16 = molecular target: T16, STK16 (Homo sapiens, UniProt O75716)
T16 construct: host or cells: E. coli host derived from the BL21 strain, T7 phage lysate
T16 sequence (O75716 whole entry): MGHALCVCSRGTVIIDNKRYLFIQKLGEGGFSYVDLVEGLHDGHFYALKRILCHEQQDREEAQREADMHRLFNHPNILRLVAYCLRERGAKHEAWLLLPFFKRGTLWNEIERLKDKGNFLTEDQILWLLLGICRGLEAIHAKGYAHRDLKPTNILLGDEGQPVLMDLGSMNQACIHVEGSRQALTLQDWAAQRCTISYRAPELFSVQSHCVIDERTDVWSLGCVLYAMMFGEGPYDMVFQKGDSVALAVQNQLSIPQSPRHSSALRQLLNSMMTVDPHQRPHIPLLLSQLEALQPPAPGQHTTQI
From the text: as §1, §2, §3

FRK = molecular target: T17, FRK (Homo sapiens, UniProt P42685)
T17 construct: host or cells: E. coli host derived from BL21, infected with T7 phage
T17 sequence (P42685 whole entry): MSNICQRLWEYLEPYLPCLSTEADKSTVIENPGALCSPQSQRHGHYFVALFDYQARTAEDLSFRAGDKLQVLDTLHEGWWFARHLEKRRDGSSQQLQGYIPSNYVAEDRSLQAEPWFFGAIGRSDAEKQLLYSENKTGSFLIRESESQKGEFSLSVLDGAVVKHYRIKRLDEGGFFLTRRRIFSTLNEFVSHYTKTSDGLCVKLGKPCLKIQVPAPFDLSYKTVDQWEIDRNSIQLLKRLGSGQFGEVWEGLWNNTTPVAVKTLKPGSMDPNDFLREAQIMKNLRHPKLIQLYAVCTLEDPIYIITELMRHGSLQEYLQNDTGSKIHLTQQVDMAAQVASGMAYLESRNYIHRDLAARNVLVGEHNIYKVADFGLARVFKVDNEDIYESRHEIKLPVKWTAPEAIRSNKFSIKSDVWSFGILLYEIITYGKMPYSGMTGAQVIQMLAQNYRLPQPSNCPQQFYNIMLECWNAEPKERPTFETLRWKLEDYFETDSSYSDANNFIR
From the text: as §1, §2, §3

AAK1 = molecular target: T18, AAK1 (Homo sapiens, UniProt Q2M2I8)
T18 construct: host or cells: E. coli host derived from BL21 (T7 phage lysate)
From the text: as §1, §2, §3

RET (V804M) = molecular target: T19, RET (V804M) (Homo sapiens, UniProt P07949, V804M)
T19 construct: host or cells: E. coli host derived from BL21, T7 phage lysate
From the text: as §1, §2, §3

CAMKK2 = molecular target: T20, CAMKK2 (Homo sapiens, UniProt Q96RR4)
T20 construct: host or cells: T7 phage in E. coli (BL21-derived)
T20 sequence (Q96RR4 whole entry): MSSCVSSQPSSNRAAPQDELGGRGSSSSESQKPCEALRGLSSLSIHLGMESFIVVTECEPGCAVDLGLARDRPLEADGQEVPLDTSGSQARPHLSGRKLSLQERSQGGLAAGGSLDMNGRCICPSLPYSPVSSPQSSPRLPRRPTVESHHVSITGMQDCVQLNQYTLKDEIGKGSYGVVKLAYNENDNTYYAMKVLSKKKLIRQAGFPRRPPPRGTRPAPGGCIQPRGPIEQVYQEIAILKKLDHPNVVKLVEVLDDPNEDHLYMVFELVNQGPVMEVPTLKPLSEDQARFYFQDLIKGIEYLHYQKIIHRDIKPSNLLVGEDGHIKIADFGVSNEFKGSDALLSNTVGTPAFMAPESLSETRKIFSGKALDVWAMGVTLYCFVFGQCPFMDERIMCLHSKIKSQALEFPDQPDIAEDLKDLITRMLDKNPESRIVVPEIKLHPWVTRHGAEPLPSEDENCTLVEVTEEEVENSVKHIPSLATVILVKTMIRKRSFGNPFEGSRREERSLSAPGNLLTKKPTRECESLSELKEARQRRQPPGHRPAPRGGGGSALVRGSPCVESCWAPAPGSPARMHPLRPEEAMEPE
From the text: as §1, §2, §3

MEK1 = molecular target: T21, MEK1 (Homo sapiens, UniProt Q02750)
T21 construct: host or cells: E. coli derived from BL21, infected with T7 phage
T21 sequence (Q02750 whole entry): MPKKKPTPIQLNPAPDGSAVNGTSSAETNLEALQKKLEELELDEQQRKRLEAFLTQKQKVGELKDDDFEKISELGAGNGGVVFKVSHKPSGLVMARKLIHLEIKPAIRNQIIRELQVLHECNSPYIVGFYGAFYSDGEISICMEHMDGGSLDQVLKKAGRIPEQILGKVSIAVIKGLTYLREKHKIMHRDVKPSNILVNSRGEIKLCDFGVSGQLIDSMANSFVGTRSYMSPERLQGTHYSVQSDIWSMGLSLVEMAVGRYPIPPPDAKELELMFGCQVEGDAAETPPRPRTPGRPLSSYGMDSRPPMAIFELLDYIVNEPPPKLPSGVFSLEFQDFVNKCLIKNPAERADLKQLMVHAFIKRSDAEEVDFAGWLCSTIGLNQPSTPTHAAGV
From the text: as §1, §2, §3

MYLK = molecular target: T22, MYLK (Homo sapiens, UniProt Q15746)
T22 construct: host or cells: T7 phage in E. coli host derived from BL21
From the text: as §1, §2, §3

T1 sequence (P54753 34-998): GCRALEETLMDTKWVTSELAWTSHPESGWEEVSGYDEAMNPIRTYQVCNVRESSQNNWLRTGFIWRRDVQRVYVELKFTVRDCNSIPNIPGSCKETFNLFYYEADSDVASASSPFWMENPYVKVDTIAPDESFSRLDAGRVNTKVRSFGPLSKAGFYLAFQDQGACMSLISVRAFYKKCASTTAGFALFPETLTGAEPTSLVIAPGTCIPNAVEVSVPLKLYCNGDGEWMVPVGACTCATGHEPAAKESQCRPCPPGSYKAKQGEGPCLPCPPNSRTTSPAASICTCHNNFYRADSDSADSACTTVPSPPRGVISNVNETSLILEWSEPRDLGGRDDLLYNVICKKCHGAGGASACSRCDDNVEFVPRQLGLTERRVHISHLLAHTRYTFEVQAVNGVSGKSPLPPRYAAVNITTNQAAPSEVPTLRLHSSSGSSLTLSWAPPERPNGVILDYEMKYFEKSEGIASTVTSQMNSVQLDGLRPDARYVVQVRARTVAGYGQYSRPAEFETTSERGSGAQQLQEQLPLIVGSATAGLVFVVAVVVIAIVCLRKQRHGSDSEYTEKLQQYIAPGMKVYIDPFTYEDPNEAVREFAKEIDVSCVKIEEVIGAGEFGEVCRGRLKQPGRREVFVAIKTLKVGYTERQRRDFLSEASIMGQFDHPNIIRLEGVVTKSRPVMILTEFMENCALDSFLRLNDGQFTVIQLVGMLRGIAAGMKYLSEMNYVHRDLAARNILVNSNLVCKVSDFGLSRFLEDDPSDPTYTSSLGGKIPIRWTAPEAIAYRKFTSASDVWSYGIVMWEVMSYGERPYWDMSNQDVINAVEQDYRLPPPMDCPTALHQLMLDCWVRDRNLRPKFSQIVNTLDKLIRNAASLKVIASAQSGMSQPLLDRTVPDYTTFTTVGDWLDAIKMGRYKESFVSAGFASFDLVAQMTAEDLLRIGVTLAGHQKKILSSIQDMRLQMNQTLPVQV

## C#Cc1cccc(Nc2ncnc3cc(OC)c(OCCCN4CCOCC4)cc23)c1 [NRC-2694, N-(3-ethylnylphenyl)-7-methoxy-6-[3-(4-morpholinyl)propoxy]-4-quinazolinamine]
EPHB3
  % Ctrl @ 10000 nM: 75 % Ctrl
CDK3
  % Ctrl @ 10000 nM: 91 % Ctrl
VEGFR2
  % Ctrl @ 10000 nM: 95 % Ctrl
FLT3
  % Ctrl @ 10000 nM: 49 % Ctrl
FLT3 (D835Y)
  % Ctrl @ 10000 nM: 9.4 % Ctrl
EGFR (G719C)
  % Ctrl @ 10000 nM: 0 % Ctrl
LIMK1
  % Ctrl @ 10000 nM: 62 % Ctrl
CIT
  % Ctrl @ 10000 nM: 5.0 % Ctrl
BRSK1
  % Ctrl @ 10000 nM: 53 % Ctrl
EPHA5
  % Ctrl @ 10000 nM: 86 % Ctrl
PFTAIRE2
  % Ctrl @ 10000 nM: 71 % Ctrl
GCN2 (Kin.Dom.2.S808G)
  % Ctrl @ 10000 nM: 12 % Ctrl
RET (M918T)
  % Ctrl @ 10000 nM: 37 % Ctrl
LTK
  % Ctrl @ 10000 nM: 3.8 % Ctrl
TSSK1B
  % Ctrl @ 10000 nM: 93 % Ctrl
STK16
  % Ctrl @ 10000 nM: 100 % Ctrl
FRK
  % Ctrl @ 10000 nM: 10 % Ctrl
AAK1
  % Ctrl @ 10000 nM: 38 % Ctrl
RET (V804M)
  % Ctrl @ 10000 nM: 100 % Ctrl
CAMKK2
  % Ctrl @ 10000 nM: 60 % Ctrl
MEK1
  % Ctrl @ 10000 nM: 50 % Ctrl
MYLK
  % Ctrl @ 10000 nM: 62 % Ctrl
